In patent US11732277B2, “Cellular production of pure iron oxide nanoparticles” (NANOBACTERIE, priority 2018, dated 2023):
Where two headings read alike, the source gives them in different places.

How the values were obtained:
[1] = tested on: MSR-1 magnetotactic bacteria; assay type: cell-based; details: for Growth ratio (ODD13/ODD6) / Optical density following pre-growth (ODD6) / Optical density following growth (ODD13): condition 4, individual vitamins; for Optical density following pre-growth (ODD6) / Optical density following growth (ODD13): OD at 565 nm; for Optical density following pre-growth (ODD6): day 6; for Optical density following growth (ODD13): day 13; for OD565 nmD13/OD565 nmD6: condition 4, individual vitamin replacing yeast extract, mineral elixir CB3, 50 mL tubes
Experimental: Optical density measurements of suspensions of whole magnetotactic bacteria to assess bacterial growth: The optical density of the different suspensions of magnetotactic bacteria was measured at 565 nm, designated as OD565 nm, using a Secomam UviLine9400 spectrophotometer. The value of OD565 nm is proportional to the concentrations of bacteria in the suspensions. […]
This example describes the experimental protocol used to determine the reduced medium replacing the yeast extract that enables the growth of MSR-1 magnetotactic bacteria and the synthesis of magnetosomes by these bacteria. In this example we used non-pharmaceutical grade chemicals for the preparation of the growth media. The compositions of pre-growth and growth media, in one liter of de-ionized water, are indicated in table 2 (condition 2), table 3 (condition 3), and table 4 (condition 4). During the first day of the experiment (D1), a first step consists in collecting the tubes of 15 ml containing 5 mL of MSR-1 cellular stock tube from the freezer at −80° C., in thawing the tubes by letting them at room temperature for 10 minutes. In a hood, we collected from these tubes 100 μl comprising 5.10^6 MSR-1 magnetotactic bacteria that we have inserted in a 50 mL tube comprising 8 mL of filtered pre-growth medium of either condition 2 (table 2), condition 3 (table 3), or condition 4 (table 4). The 50 ml tubes were incubated for 6 days between D1 and D6 in an incubator at 29.5° C. under shaking conditions at 150 rpm. A second step consisted in adding an iron source to the growth media to enable the synthesis of magnetosomes by MSR-1 bacteria. After 6 days of pre-growth, at D6, the 50 ml tubes were placed in a hood. 30 ml of filtered growth medium were then added to the 50 mL tubes (condition 2, table 2, condition 3, table 3, condition 4, table 4) at D6 and the bacteria grew between D6 and D13. […] In contrast, the magnetic response is 0 for conditions Vit5X, Vit10X (condition 3) and very low for conditions CP, I, AA, P (condition 4). […]

[2] = tested on: MSR-1 magnetotactic bacteria; assay type: cell-based; details: for magnetic response: condition 4, individual vitamin replacing yeast extract, at D13; for Magnetic response (%): condition 4, individual vitamins, D13
Experimental: Measurement of the magnetic response of living magnetotactic bacteria using optical microscopic observations of these bacteria under the application of a magnetic field: 1 mL of a suspension of MSR-1 magnetotactic bacteria was centrifugated at 14500 rpm for 10 minutes. The growth medium was removed and replaced by a volume of PBS 0.1× to reach an OD565 nm of 0.5. 1 μL of this suspension of MSR-1 magnetotactic bacteria was deposited on a parallelipedic microscope slide (Menzel-Glaser, 24 mm×60 mm, […]) for microscopic observation using a Zeiss Primo Vert optical microscope with X40 magnification. Four small cubic Neodinium magnets of strength 1.3 T (Supermagnet, N42 W-10-N 10×10×10 mm) were positioned on the microscope's platform at a distance from the suspension of bacteria of ˜2 cm in such a way that it either generated a magnetic field parallel to the position of the observer or to the line between the two binoculars (position 1) or perpendicular to this position (position 2). 20 seconds after positioning the magnet in position 1 or 2, the percentage of bacteria aligned in the direction of the magnetic field was estimated, by considering 200 magnetotactic bacteria. The bacteria that were not aligned in the same direction as the magnetic field generated by the magnet were considered as non-magnetic. Their number is designated as nBNM. The bacteria that were aligned in the direction of the magnetic field generated by the magnet were considered as magnetic. Their number was designated as nBM. The percentage of magnetic bacteria was then given by nBM/(nBM+nBNM). A positive magnetic response of magnetotatic bacteria corresponded to nBM/(nBM+nBNM)>0.5. A negative magnetic response of magnetotatic bacteria corresponds to nBM/(nBM+nBNM)<0.5.
In some cases, the percentage of magnetic bacteria can be measured by optical observation under microscope in the presence of a magnetic field.

Molecule | Growth ratio (ODD13/ODD6) [1] | Optical density following pre-growth (ODD6) [1] | Optical density following growth (ODD13) [1] | magnetic response [2] | Magnetic response (%) [2] | OD565 nmD13/OD565 nmD6 [1] | OD565 nmD13/OD565 nmD6 ([1]; listed as thiamin HCl, HCl) | magnetic response ([2]; listed as thiamin HCl, HCl)
Nc1ccc(C(=O)O)cc1 [AA, p-Aminobenzoic acid] | 6.7 | 0.12 | 0.8 | very low | 20% |  |  | 
O=C(O)CCCC[C@@H]1SC[C@@H]2NC(=O)N[C@@H]21 [Biotin] |  |  |  | 90% | >90% |  |  | 
O[C@H]1[C@H](O)[C@@H](O)[C@H](O)[C@@H](O)[C@H]1O [I, Inositol] | 2.4 | 0.33 | 0.8 | very low | 20% |  |  | 
Cc1ncc(CO)c(CO)c1O.Cl [P, Pyridoxine HCl] | 2.8 | 0.25 | 0.7 | very low | 5% |  |  | 
Cc1cc2nc3c(=O)[nH]c(=O)nc-3n(C[C@H](O)[C@H](O)[C@H](O)CO)c2cc1C [Riboflavin] | 4.8 | 0.19 | 0.92 | 90% | >90% | 4.8 |  | 
Nc1nc2ncc(CNc3ccc(C(=O)N[C@@H](CCC(=O)O)C(=O)O)cc3)nc2c(=O)[nH]1 [folic acid, Folic acid] | 2.9 | 0.4 | 1.14 | 90% | 50% | 2.9 |  | 
O=C(O)c1cccnc1 [nicotinic acid, Nicotinic acid] | 2.4 | 0.27 | 0.65 | 90% | >90% | 2.4 |  | 
Calcium pantothenate [CP] | 3.3 | 0.3 | 0.98 | very low | 5% |  |  | 
Thiamine HCl | 5.8 | 0.26 | 1.51 |  | >90% |  | 5.8 | 90%
